Like-named read-outs stand apart in the source and are kept apart here.
How the values were obtained:
[1] = target: T1, [35S]abl SH-2 / activated EGF receptor (Homo sapiens, UniProt P00519); test: in vitro inhibition of [35S]abl SH-2 interactions with activated EGF receptor; format: binding
T1 construct: containing the SH-2 domain of abl; made in house; host or cells: abl SH-2 fusion: bacteria, labelled in vivo with 35S; EGFR partner: EGF-treated 3T3 cells transfected with human EGFR, immunoprecipitated
T1 sequence (P00519 127-217 limits assumed): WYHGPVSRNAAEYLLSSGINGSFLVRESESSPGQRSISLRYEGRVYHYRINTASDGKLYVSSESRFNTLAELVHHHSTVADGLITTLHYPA
Method: The ability of some of the preferred compounds of the present invention to inhibit SH-2 interactions with activated tyrosine kinase receptors was measured using an in vitro biological assay. The test assesses the ability of a test compound to inhibit the interaction of [^35 S]abl SH-2 with activated EGF receptors, or with other receptor tyrosine kinases.
A bacterial glutathione-S-transferase fusion protein, containing the SH-2 domain of abl, is labelled in vivo with ^35 S. Phosphorylated EGFR is purified from EGF-treated 3T3 cells transfected with the human EGFR by precipitation with anti-EGFR antisera. The resulting immune complex is bound to protein A--Sepharose beads. Binding of the ^35 S labelled abl fusion protein (77 nM) to the purified EGFR beads complex (approximately 1 μg of receptor/assay) is allowed to proceed to equilibrium (30 minutes) in a total volume of 0.4 mL, in the presence of the test compounds. Bound ^35 S fusion protein is separated from free by filtration through 0.65 μ DUPP filters, and radioactivity is determined by scintillation counting.
Results of the binding study are expressed in Table 1 as IC50 values, i.e., the concentration of test compound required to inhibit [^35 S]abl SH-2 interactions with the activated EGF receptor.

[2] = test system: Rat Aortic Smooth Muscle Cells (RASMC); test: [3H]Thymidine Incorporation Assay, smooth muscle cell proliferation stimulated by serum; format: cell-based; conditions: 22 hours
Method: (§1) SH-2 tyrosine kinase inhibitors may block the signal transduction pathways for platelet derived growth factor ("PDGF") and fibroblast growth factor ("FGF"), which have been implicated in the control of smooth muscle cell proliferation. The ability of some of the preferred compounds of the present invention to inhibit smooth muscle cell (SMC) proliferation stimulated by PDGF or serum was measured using the biological assay discussed below.
(§2) Rat Aortic Smooth Muscle Cells (RASMC) were plated into a 24-well plate (30,000 cells/well) in DMEM with 10% Fetal Bovine Serum (FBS). After 4 days cells reached confluence and were made quiescent by incubation in DMEM/F12 medium (Gibco) containing 0.2% FBS for another 2 days. Incubation with the growth factors, PDGF-BB and bFGF as well as FBS, and test compound was carried out in 0.5 mL/well serum-substituted medium (DMEM/F12+1% CPSR-2 from Sigma) for 22 hours. After 18 hours, 0.25 μCi/well [^3 H]thymidine was added. Four hours later the incubation was stopped by removing the radioactive media, washing the cells twice with 1 mL cold phosphate-buffered saline, and then washing 2 times with cold 5% trichloroacetic acid. The acid-insoluble fraction was lysed in 0.75 mL 0.25N NaOH and the radioactivity determined by liquid scintillation counting.
(§3) Smooth muscle cells were isolated from the thoracic aorta of rats (RASMC) and explanted according to the method of Ross, et al., Cell Biology 50:172-186 (1971). Cells were grown in Dulbecco's modified Eagle's medium (DMEM, Gibco) containing 10% fetal calf serum (FBS, Hyclone, Logan, Utah), 1% glutamine (Gibco), and 1% penicillin/streptomycin (Gibco). Cells were identified as smooth muscle cells by their "hill and valley" growth pattern and by fluorescent staining with a monoclonal antibody specific for SMC α-actin (Sigma). RASMC were used between passages 5 and 20 for all experiments. Test compounds were prepared in dimethylsulfoxide (DMSO) in order to achieve consistency in the vehicle and to ensure compound solubility. Appropriate DMSO controls were simultaneously evaluated with the test compounds.
(§4) The results of the cellular proliferation assay are expressed in Table 2 as IC50 values, i.e., the concentration of test compound required to inhibit [^3 H]thymidine incorporation into smooth muscle cells.

[3] = test system: Rat Aortic Smooth Muscle Cells (RASMC); test: [3H]Thymidine Incorporation Assay, smooth muscle cell proliferation stimulated by PDGF; format: cell-based; conditions: 22 hours
Method: as §1, §2, §3, §4

MCF-7 = test: inhibition of growth of tumor cells, MCF-7; format: cell-based; conditions: Homo sapiens, MCF7, estrogen dependent breast adenocarcinoma, 3000 EGF receptors/cell, some erbB2
K562 cell line [4] = test: viability of the K562 cell line (FIGS. 1 and 2); format: cell-based, human
Method: (§5) In one screen, K562 human erythroleukemic cells were seeded at 6×10^4 cells/mL in RPMI 1640 medium containing 10% fetal bovine serum. These cells score positively for the Philadelphia chromosome, and are known to be transformed by the bcr-abl oncogene. At the time of seeding, test compound, or vehicle (DMSO), were added. Cells were counted 4 days after seeding using a hemocytometer.
(§6) In this example, an experiment was conducted to determine the inhibition of the growth of tumor cells from the K562 cell line upon exposure to Test Compound A specified in Example 3. The screen was conducted as described in Example 3.

NIH EGF-R = test: inhibition of cell growth, NIH EGF-R; format: cell-based; conditions: mouse fibroblast, high expression of EGF receptor
L1210 = test: inhibition of growth of tumor cells, L1210; format: cell-based; conditions: mouse lymphocytic leukemia
K562 cell line [5] = test: proliferation of K562 cell line (FIG. 3); format: cell-based, human; conditions: FIG. 3, wide range of concentrations
Method: as §5, §6

KG-1A = test: inhibition of growth of tumor cells, KG-1A; format: cell-based; conditions: human acute myelogenous leukemia, no bcr-abl
A431 = test: inhibition of growth of tumor cells, A431; format: cell-based; conditions: A-431, human epidermoid carcinoma, overexpresses EGF receptor
KG-1A cell line = test: proliferation of KG-1A cell line (FIG. 3); format: cell-based, human; conditions: FIG. 3, wide range of concentrations
Method: [The procedure below names another cell line; the source lists this cell line under the same test.] as §5, §6

MDA-231 = test: inhibition of growth of tumor cells, MDA-231; format: cell-based; conditions: Homo sapiens, MDA-MB-231, breast adenocarcinoma, moderate EGFR and erbB2
HCT-8 = test: inhibition of growth of tumor cells, HCT-8; format: cell-based; conditions: human colon carcinoma, 18,000 EGF receptors/cell
K562 = test: inhibition of growth of tumor cells, K562; format: cell-based; conditions: 96 h, human chronic myelogenous leukemia, expresses p210 bcr-abl, 4 days
Method: as §5
The results of this experiment for a representative compound of the present invention appears in Table 3. Test Compound A is N,N'-decamethylenebis[2-amino-1-(2-imidazolin-2-yl)-2-imidazoline, dihydroiodide. The inhibition of growth of tumor cells is expressed as IC50 values; i.e., the concentration of test compound required to inhibit growth of the tumor cells by 50%.

MDA-468 = test: inhibition of growth of tumor cells, MDA-468; format: cell-based; conditions: estrogen independent breast adenocarcinoma, overexpresses EGF receptor
MOLT-4 = test: inhibition of growth of tumor cells, MOLT-4; format: cell-based; conditions: human acute lymphoblastic leukemia, no bcr-abl
NIH 2.2 = test: inhibition of cell growth, NIH 2.2; format: cell-based; conditions: mouse fibroblast, no EGF receptor
SWISS 3T3 = test: inhibition of cell growth, SWISS 3T3; format: cell-based; conditions: mouse fibroblast
[6] = [35S]abl SH-2 binding to activated EGF receptor, values in μM, read-out: IC50
[7] = [35S]abl SH-2 binding to activated EGF receptor, values in nM, read-out: IC50

| SMILES | IC50 [1, 6] [µM] | IC50 [2] [µM] | IC50 [3] [µM] | also measured |
| --- | --- | --- | --- | --- |
| C(CCCNC1=NCCN1C1=NCCN1)CCNC1=NCCN1C1=NCCN1 | – | – | – | IC50 [1, 7]: 0.1 µM |
| CCCCCCCNC1=NCCN1C1=NCCN1 [drawing 7, 2-(Heptylamino)-1-(2-imidazolin-2-yl)-2-imidazoline, monohydroiodide] | 10 to 100 | – | – | – |
| CCCCCCCCCCCCCCCCCNC1=NCCN1C1=NCCN1 [2-(Heptadecylamino)-1-(2-imidazolin-2-yl)-2-imidazoline, monohydroiodide] | 1.32 | < 1 | < 1 | – |
| C(CCCCNC1=NCCN1C1=NCCN1)CCCCNC1=NCCN1C1=NCCN1 | – | – | – | IC50 [1]: 1.3 µM |
| C(CCCCCNC1=NCCN1C1=NCCN1)CCCCCNC1=NCCN1C1=NCCN1 | – | – | – | IC50 [1, 7]: 0.6 µM |
| C(CCCCCCNC1=NCCN1C1=NCCN1)CCCCCNC1=NCCN1C1=NCCN1 | – | – | – | IC50 [1]: 1.2 µM |
| CCCCCCCNC1=NCCN1C1=NCCN1 [drawing 21, 2-(Heptylamino)-1-(2-imidazolin-2-yl)-2-imidazoline, monohydroiodide] | – | 6.4 | 3 | – |
| C(CCCCCNC1=NCCN1C1=NCCN1)CCCCNC1=NCCN1C1=NCCN1 [Compound A] | – | 5 | 2.8 | IC50 (MCF-7): 7.8 µM; viability of the K562 cell line (K562 cell line [4]; FIG. 1, increased concentrations): steadily decline; viability of the K562 cell line over time (K562 cell line [4]; FIG. 2, 3 μM versus 0.3 μM, compared against a control): substantially greater effect at decreasing the viability; IC50 (NIH EGF-R): > 25 µM; IC50 (L1210): 1 µM; growth rate of the K562 cell line (K562 cell line [5]): substantially decreased; IC50 (KG-1A): 100 µM; IC50 (A431): 4.4 µM; growth rate of the KG-1A cell line (KG-1A cell line): only slightly decreased; IC50 (MDA-231): 14 µM; IC50 (HCT-8): 6.6 µM; IC50 (K562): 0.6 µM; IC50 (MDA-468): 0.9 µM; IC50 (MOLT-4): 2.1 µM; IC50 (NIH 2.2): > 25 µM; IC50 [1, 7]: 0.05 µM; IC50 (SWISS 3T3): > 50 µM |
| C1CCCCCC(NC2=NCCN2C2=NCCN2)CCCCC1 [drawing 25, 2-Cyclododecylamino-1-(2-imidazolin-2-yl)-2-imidazoline, monohydroiodide] | – | 1.1 | < 1 | – |
| C1CCCCCC(NC2=NCCN2C2=NCCN2)CCCCC1 [drawing 11, 2-Cyclododecylamino-1-(2-imidazolin-2-yl)-2-imidazoline, monohydroiodide] | > 100 | – | – | – |

More lines, main results first:

| IC50 [1, 6] [µM] | SMILES | IC50 [2] [µM] | IC50 [3] [µM] | also measured |
| --- | --- | --- | --- | --- |
| 50 | CCCCCCCCCCCCCN=C1NCCN1C1=NCCN1 [(4,5,4',5'-Tetrahydro-3H,1'H-[1,2']biimidazolyl-2-ylidene)-tridecyl-amine] | – | – | – |
| 259 | C(CCNC1=NCCN1C1=NCCN1)CCNC1=NCCN1C1=NCCN1 | > 100 | 74 | – |
| 27 | C(CCNC1=NCCN1C1=NCCN1)CNC1=NCCN1C1=NCCN1 | – | – | – |
| 38 | C(CCCNC1=NCCN1C1=NCCN1)CCCNC1=NCCN1C1=NCCN1 | – | – | – |
| 33 | C(CCCCNC1=NCCN1C1=NCCN1)CCCNC1=NCCN1C1=NCCN1 | 62 | 40 | – |
| 10 | C(CN=C1NCCN1C1=NCCN1)CN1CCN(CCCN=C2NCCN2C2=NCCN2)CC1 [2-(3-{4-[3-(4,5,4',5'-Tetrahydro-3H,1'H-[1,2']biimidazolyl-2-ylideneamino)-propyl]-piperazin-1-yl}-propylimino)-2,3,4,5,4',5'-hexahydro-1'H-[1,2']biimidazolyl] | – | – | – |

Reference: patent US5721266A, “Substituted imidazolinyl-imidazolines as antagonists of SH-2 binding and therapeutic uses thereof” (Warner-Lambert Company, priority 1994, dated 1998)
